Measurements taken from PubChem BioAssay AID2060909 (Molecular Pharmacology Branch, DTP, NCI, 2025).
pIC50: −log10 of the molar value. Values belong to the compound of their own block, whether it stands above or below them.

System: 362531-283-R-J2-PDC complex spheroid viability
Assay: Anticancer human tumor 362531-283-R-J2-PDC patient-derived colon adenocarcinoma cell line growth inhibition [RAS]
Conditions: for pIC50: curve of first compound; for viability, T/C: stronger effect = lower value
Method in brief: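 Tumour cells grown as complex spheroids with HUVEC endothelial cells and mesenchymal stem cells, treated with RAS pathway inhibitor combinations. Each agent spans half-log steps from near clinical Cmax, or 10 microM where Cmax is unknown.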

[1] = second compound 0.0316 µM, first compound 0.0316 µM
[2] = second compound 0.0316 µM, first compound 0.1 µM
[3] = second compound 0.0316 µM, first compound 0.316 µM
[4] = second compound 0.0316 µM, first compound 1 µM
[5] = second compound 0.1 µM, first compound 0.0316 µM
[6] = second compound 0.1 µM, first compound 0.1 µM
[7] = second compound 0.1 µM, first compound 0.316 µM
[8] = second compound 0.1 µM, first compound 1 µM
[9] = second compound 0.316 µM, first compound 0.0316 µM
[10] = second compound 0.316 µM, first compound 0.1 µM
[11] = second compound 0.316 µM, first compound 0.316 µM
[12] = second compound 0.316 µM, first compound 1 µM
[13] = second compound 1 µM, first compound 0.0316 µM
[14] = second compound 1 µM, first compound 0.1 µM
[15] = second compound 1 µM, first compound 0.316 µM
[16] = second compound 1 µM, first compound 1 µM
[17] = second compound 3.16 µM, first compound 0.0316 µM
[18] = second compound 3.16 µM, first compound 0.1 µM
[19] = second compound 3.16 µM, first compound 0.316 µM
[20] = second compound 3.16 µM, first compound 1 µM
[21] = second compound 10 µM, first compound 0.0316 µM
[22] = second compound 10 µM, first compound 0.1 µM
[23] = second compound 10 µM, first compound 0.316 µM
[24] = second compound 10 µM, first compound 1 µM
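Further: spheroids exposed to the agents for 7 days before readout.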
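Wherever viability, T/C is given: luminescence viability as percent of DMSO vehicle control wells.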

- pIC50 (second compound 0.0316 µM): < 6.00
- pIC50 (second compound 0.1 µM): < 6.00
- pIC50 (second compound 0.316 µM): < 6.00
- pIC50 (second compound 1 µM): < 6.00
- pIC50 (second compound 3.16 µM): < 6.00
- pIC50 (second compound 10 µM): > 8.50
Compound: C=CC(=O)N1CCN(c2nc(OCC3CCCN3C)nc3c(F)c(-c4nc(N)cc(C)c4C(F)(F)F)c(Cl)cc23)C(C)C1 (centres undefined) + C#Cc1c(F)ccc2cc(O)cc(-c3ncc4c(N5CC6CCC(C5)N6)nc(OCC56CCCN5CC(F)C6)nc4c3F)c12
- viability, T/C (second compound 0.0316 µM, first compound 0.00316 µM): 98.1%
- viability, T/C (second compound 0.0316 µM, first compound 0.01 µM): 94.4%
- viability, T/C [1]: 95.5%
- viability, T/C [2]: 98.4%
- viability, T/C [3]: 97.8%
- viability, T/C [4]: 89.6%
- viability, T/C (second compound 0.1 µM, first compound 0.00316 µM): 93.6%
- viability, T/C (second compound 0.1 µM, first compound 0.01 µM): 93.1%
- viability, T/C [5]: 97.1%
- viability, T/C [6]: 92.3%
- viability, T/C [7]: 98.7%
- viability, T/C [8]: 98.3%
- viability, T/C (second compound 0.316 µM, first compound 0.00316 µM): 82.6%
- viability, T/C (second compound 0.316 µM, first compound 0.01 µM): 78.6%
- viability, T/C [9]: 90.9%
- viability, T/C [10]: 97.8%
- viability, T/C [11]: 89.3%
- viability, T/C [12]: 90.7%
- viability, T/C (second compound 1 µM, first compound 0.00316 µM): 80.7%
- viability, T/C (second compound 1 µM, first compound 0.01 µM): 74.4%
- viability, T/C [13]: 82.7%
- viability, T/C [14]: 70.4%
- viability, T/C [15]: 82.7%
- viability, T/C [16]: 74.4%
- viability, T/C (second compound 3.16 µM, first compound 0.00316 µM): 66.5%
- viability, T/C (second compound 3.16 µM, first compound 0.01 µM): 69%
- viability, T/C [17]: 71.2%
- viability, T/C [18]: 80.8%
- viability, T/C [19]: 58.1%
- viability, T/C [20]: 71.7%
- viability, T/C (second compound 10 µM, first compound 0.00316 µM): 39.9%
- viability, T/C (second compound 10 µM, first compound 0.01 µM): 48%
- viability, T/C [21]: 46.7%
- viability, T/C [22]: 38.1%
- viability, T/C [23]: 49.6%
- viability, T/C [24]: 42.7%

- pIC50 (second compound 0.0316 µM): 6.77
- pIC50 (second compound 0.1 µM): 6.77
- pIC50 (second compound 0.316 µM): 6.85
- pIC50 (second compound 1 µM): 6.99
- pIC50 (second compound 3.16 µM): 7.27
- pIC50 (second compound 10 µM): > 7.50
Compound: CC(=O)OC12COC1CC(O)C1(C)C(=O)C(O)C3=C(C)C(OC(=O)C(O)C(NC(=O)OC(C)(C)C)c4ccccc4)CC(O)(C(OC(=O)c4ccccc4)C21)C3(C)C (centres undefined) + C#Cc1c(F)ccc2cc(O)cc(-c3ncc4c(N5CC6CCC(C5)N6)nc(OCC56CCCN5CC(F)C6)nc4c3F)c12
- viability, T/C [1]: 83.2%
- viability, T/C [2]: 76.4%
- viability, T/C [3]: 18.4%
- viability, T/C [4]: 14%
- viability, T/C (second compound 0.0316 µM, first compound 3.16 µM): 14.6%
- viability, T/C (second compound 0.0316 µM, first compound 10 µM): 18.5%
- viability, T/C [5]: 81.9%
- viability, T/C [6]: 80.5%
- viability, T/C [7]: 13.6%
- viability, T/C [8]: 13.6%
- viability, T/C (second compound 0.1 µM, first compound 3.16 µM): 13.4%
- viability, T/C (second compound 0.1 µM, first compound 10 µM): 15.5%
- viability, T/C [9]: 90.9%
- viability, T/C [10]: 64.4%
- viability, T/C [11]: 15.1%
- viability, T/C [12]: 11.7%
- viability, T/C (second compound 0.316 µM, first compound 3.16 µM): 12.9%
- viability, T/C (second compound 0.316 µM, first compound 10 µM): 11.8%
- viability, T/C [13]: 81.2%
- viability, T/C [14]: 50.8%
- viability, T/C [15]: 13.6%
- viability, T/C [16]: 14.6%
- viability, T/C (second compound 1 µM, first compound 3.16 µM): 13.6%
- viability, T/C (second compound 1 µM, first compound 10 µM): 13.1%
- viability, T/C [17]: 65.6%
- viability, T/C [18]: 32.4%
- viability, T/C [19]: 14.2%
- viability, T/C [20]: 15%
- viability, T/C (second compound 3.16 µM, first compound 3.16 µM): 13.5%
- viability, T/C (second compound 3.16 µM, first compound 10 µM): 13.5%
- viability, T/C [21]: 32.3%
- viability, T/C [22]: 15.6%
- viability, T/C [23]: 13.5%
- viability, T/C [24]: 15.1%
- viability, T/C (second compound 10 µM, first compound 3.16 µM): 13.6%
- viability, T/C (second compound 10 µM, first compound 10 µM): 12.5%
